These are literature values, as cited in patent US20240374879A1, “METHODS AND COMPOSITIONS TO REDUCE CELLULAR DEPOSITION, AND HYDROCEPHALUS SHUNT FAILURE” (Wayne State University, priority 2021, published 2024).

The target in the data set is T1, TLR-4 (Mus musculus, UniProt Q9QUK6).
T1 sequence (Q9QUK6 26-835): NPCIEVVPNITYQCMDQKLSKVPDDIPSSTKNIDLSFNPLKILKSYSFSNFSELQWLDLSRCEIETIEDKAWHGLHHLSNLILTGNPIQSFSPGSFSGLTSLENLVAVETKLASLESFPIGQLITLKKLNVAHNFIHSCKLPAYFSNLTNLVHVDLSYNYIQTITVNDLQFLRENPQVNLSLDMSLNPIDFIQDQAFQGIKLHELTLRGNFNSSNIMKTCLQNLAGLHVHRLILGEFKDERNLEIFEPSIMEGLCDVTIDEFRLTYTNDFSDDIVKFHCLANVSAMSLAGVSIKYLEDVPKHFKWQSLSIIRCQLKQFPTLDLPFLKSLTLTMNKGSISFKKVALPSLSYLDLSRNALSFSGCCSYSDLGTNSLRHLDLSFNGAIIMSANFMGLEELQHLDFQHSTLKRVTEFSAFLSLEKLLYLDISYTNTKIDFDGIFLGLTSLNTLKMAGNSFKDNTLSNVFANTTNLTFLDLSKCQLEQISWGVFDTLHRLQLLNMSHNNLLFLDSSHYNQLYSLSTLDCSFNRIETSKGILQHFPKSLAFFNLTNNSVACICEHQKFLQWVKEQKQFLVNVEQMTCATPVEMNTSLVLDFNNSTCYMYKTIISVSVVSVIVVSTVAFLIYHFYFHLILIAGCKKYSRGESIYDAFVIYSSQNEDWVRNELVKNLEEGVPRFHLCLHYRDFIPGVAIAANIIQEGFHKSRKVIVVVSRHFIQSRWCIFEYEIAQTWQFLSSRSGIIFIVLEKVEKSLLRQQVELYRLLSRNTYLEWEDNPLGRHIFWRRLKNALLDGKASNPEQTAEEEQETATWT
The following applies: 50 mg/kg; four hours post-treatment; cited from earlier work.

Molecules are shown by their SMILES.

Turning to `O=C(O)CC1CC(c2ccccc2)=NO1` (stereo not shown) [GIT 27, 4,5-Dihydro-3-phenyl-5-isoxazoleacetic acid], the edema entry was “significantly reduced”.
